# From patent US5043332A, “Novel 11β-substituted -19-nor-steriods” (priority 1981, dated 1991)
# What was measured:
# [1] = target: T1, Mineralcorticoidal receptor of kidneys of the rat (Rattus norvegicus, UniProt P22199); assay: Mineralcorticoidal receptor binding (displacement of tritiated aldosterone)
# T1 construct: from tissue; host or cells: rat kidney, 105,000 g supernatant (adrenalectomized male Sprague-Dawley rats)
# T1 sequence (P22199 1-981): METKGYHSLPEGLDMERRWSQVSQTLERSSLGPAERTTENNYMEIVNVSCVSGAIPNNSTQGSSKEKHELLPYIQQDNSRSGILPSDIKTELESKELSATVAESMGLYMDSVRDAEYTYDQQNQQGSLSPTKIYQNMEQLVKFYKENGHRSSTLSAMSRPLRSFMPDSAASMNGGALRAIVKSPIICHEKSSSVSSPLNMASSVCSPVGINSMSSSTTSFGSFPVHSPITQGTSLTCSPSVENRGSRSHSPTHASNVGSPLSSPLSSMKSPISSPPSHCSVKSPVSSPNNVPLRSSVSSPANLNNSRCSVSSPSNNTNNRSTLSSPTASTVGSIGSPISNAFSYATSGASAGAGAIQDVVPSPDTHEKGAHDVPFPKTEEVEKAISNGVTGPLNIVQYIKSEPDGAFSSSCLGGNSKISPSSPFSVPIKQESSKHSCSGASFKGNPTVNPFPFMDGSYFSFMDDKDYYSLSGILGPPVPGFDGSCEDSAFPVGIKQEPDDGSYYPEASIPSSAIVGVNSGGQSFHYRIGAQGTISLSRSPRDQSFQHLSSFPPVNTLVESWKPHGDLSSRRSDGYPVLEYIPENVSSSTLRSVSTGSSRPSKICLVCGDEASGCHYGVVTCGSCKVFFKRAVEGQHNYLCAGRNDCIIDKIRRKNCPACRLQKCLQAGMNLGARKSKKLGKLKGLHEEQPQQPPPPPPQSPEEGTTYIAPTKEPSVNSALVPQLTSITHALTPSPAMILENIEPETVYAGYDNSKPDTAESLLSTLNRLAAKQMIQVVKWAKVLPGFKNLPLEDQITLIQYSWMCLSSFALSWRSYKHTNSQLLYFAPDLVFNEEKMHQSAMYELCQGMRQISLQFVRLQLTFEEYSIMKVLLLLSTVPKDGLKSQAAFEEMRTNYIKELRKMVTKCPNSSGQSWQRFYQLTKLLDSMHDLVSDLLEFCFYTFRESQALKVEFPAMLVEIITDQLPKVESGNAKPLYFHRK
# Description: A. Mineralcorticoidal receptor of kidneys of the rat
# Male Sprague-Dawley EOPS rats weighing 140 to 160 g surrenalectomized 4 to 8 days previously were killed and their kidneys were perfused in situ with 50 ml of a buffer (10 mM of Tris 0.25M of Saccharose and sufficient hydrochloric acid for a pH of 7.4). The kidneys were then removed, decapsulated and homogenized at 0° C. with a polytetrafluoroethylene-glass Potter (1 g of tissue per 3 ml of buffer). The homogenate was centrifuged for 10 minutes at 800 g at 9° C.
# After elimination of the fixation of tritiated aldosterone with glucocorticoid receptor, 21-methyl-Δ^1,4,6 -pregnatriene-20-yne-11β,17β-diol-3-one fixed only with the glucocorticoid receptor was added to the supernatant at a final concentration of 10^-6 M. The suprenatant was ultracentrifuged at 105,000 g for 60 minutes and 0° C. and aliquoits of the resulting surnageant were incubated at 0° C. with a constant concentration (T) of tritiated aldosterone in the presence of increasing concentrations (0-2500×10^-9 M) of cold aldosterone or the cold test product. After a time (t) of incubation, the concentration of tied tritiated aldosterone (B) was measured by the technique of adsoprtion on carbon dextran.
# (§1) The calculation of the relative affinity of […] (ARL) was identical for all of the above receptor tests. One traced the following two curves: the percentage of tied tritiated hormone B/T as a function of the logarithm of the cold hormone concentration and B/T as a function of the logarithm of the concentration of the cold test product. One determined the line of the equation. [formula]
# (§2) The intersection of the I50 line and the curves permits one to determine the concentrations of the cold hormone of the reference (CH) and the cold test compound (CX) which inhibit by 50% the tieing of tritiated hormone with the receptor. The relative affinity of tieing (ARL) of the test product was determined by the equation: [formula]
# [2] = target: T2, Androgen receptor of prostate of rats (Rattus norvegicus, UniProt P15207); assay: Androgen receptor binding (displacement of tritiated product P); settings: for affinity for androgen receptors (in words): conclusion
# T2 construct: The prostates were removed, weighed and homogenized at 0° C; from tissue; host or cells: rat prostate, 105,000 g supernatant (castrated male Sprague-Dawley rats)
# T2 sequence (P15207 1-902): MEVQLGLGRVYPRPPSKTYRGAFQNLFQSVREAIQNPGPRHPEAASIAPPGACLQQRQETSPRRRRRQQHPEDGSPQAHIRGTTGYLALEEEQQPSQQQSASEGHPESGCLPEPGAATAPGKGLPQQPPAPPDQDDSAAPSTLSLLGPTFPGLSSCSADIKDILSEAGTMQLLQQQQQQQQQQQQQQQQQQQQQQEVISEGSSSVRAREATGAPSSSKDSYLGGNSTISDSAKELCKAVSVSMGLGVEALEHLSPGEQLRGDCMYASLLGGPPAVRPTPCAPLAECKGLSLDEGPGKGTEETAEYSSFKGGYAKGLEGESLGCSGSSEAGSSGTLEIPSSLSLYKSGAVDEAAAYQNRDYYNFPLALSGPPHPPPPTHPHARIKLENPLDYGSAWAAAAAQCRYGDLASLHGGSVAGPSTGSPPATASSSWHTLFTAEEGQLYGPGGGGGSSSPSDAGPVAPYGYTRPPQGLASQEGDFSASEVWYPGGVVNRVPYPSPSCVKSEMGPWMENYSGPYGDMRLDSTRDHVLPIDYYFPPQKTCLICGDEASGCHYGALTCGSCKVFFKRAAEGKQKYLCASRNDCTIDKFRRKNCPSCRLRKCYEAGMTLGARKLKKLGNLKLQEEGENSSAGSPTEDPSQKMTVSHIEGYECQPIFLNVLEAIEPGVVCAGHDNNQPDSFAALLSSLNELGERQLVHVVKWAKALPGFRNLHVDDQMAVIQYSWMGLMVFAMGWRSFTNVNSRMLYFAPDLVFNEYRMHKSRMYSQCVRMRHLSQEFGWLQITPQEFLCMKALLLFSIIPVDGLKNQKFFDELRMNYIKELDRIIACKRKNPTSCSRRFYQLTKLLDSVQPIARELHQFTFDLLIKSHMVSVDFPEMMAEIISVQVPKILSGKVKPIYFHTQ
# Description: B. Androgen receptor of prostate of rats
# Male Sprague-Dawley EPOS rats weighing of 160 to 200 g were castrated and 24 hours later, the animals were killed. The prostates were removed, weighed and homogenized at 0° C. with a polytetrafluoroethylene-glass Potter with a buffered TS solution (Tris, 10 mM, 0.25M Saccharose, HCl-pH of 7.4) using 1 g of tissue per 5 ml of TS. The homogenate was then ultracentrifuged at 105,000 g for 60 […] (T) of product P or 17α-methyl-Δ^4,9,11 -estratriene-17β-ol-3-one in the presence of increasing concentration (0-1,000×10^-9 M) of either cold P, cold testosterone or the test compound. The concentration of tied tritiated (B) was measured for each incubate by the technique of adsorption on carbon-dextran.
# as §1, §2
# [3] = second table, incubation 24 H at 0° C.
SMILES,"relative affinity of tieing (ARL), Mineralocorticoid ([1]; incubation 1 H at 0° C.)","relative affinity of tieing (ARL), Mineralocorticoid ([1]; incubation 24 H at 0° C.)","relative affinity of tieing (ARL), Androgen ([2]; incubation 1/2H at 0° C.)","relative affinity of tieing (ARL), Androgen ([2]; incubation 24 H at 0° C.)",affinity for androgen receptors (in words) [2],"relative affinity of tieing (ARL), Mineralocorticoid [1, 3]","relative affinity of tieing (ARL), Androgen [2, 3]"
"CC#C[C@]1(OC(C)=O)CC[C@H]2[C@@H]3CCc4cc(O)ccc4[C@H]3[C@@H](c3ccc(N(C)C)cc3)C[C@@]21C [2 (17 OAc), 11β-(4-dimethylaminophenyl)-17α-(prop-1-ynyl)-17β-acetoxy-Δ^1,3,5(10) -estratriene-3-ol]","< 0,1","< 0,1","< 0,1","< 0,1",–,–,–
"CC#C[C@]1(O)CC[C@H]2[C@@H]3CCC4=CC(=O)[C@H](C)CC4=C3[C@@H](c3ccc(N(C)C)cc3)C[C@@]21C [5 (2α), 2α-methyl-11β-(4-dimethylaminophenyl)-17α-(prop-1-ynyl)-Δ^4,9-estradiene-17β-ol-3-one]","< 0,1","< 0,1","0,5","0,4",–,–,–
"CC#C[C@]1(O)CC[C@H]2[C@@H]3CCC4=CC(=O)[C@@H](C)CC4=C3[C@@H](c3ccc(N(C)C)cc3)C[C@@]21C [5 (2β), 2-methyl-11β-(4-dimethylaminophenyl)-17α-(prop-1-ynyl)-Δ^4,9-estradiene-17β-ol-3-one]","< 0,1","< 0,1","0,7","0,5",–,–,–
"CC#C[C@]1(O)CC[C@H]2[C@@H]3CCC4=CC(=O)C(C)(C)CC4=C3[C@@H](c3ccc(N(C)C)cc3)C[C@@]21C [Example 1, 2,2-dimethyl-11β-(4-dimethylaminophenyl)-17α-(prop-1-ynyl)-Δ^4,9-estradiene-17β-ol-3-one]","< 0,1","< 0,1",–,–,–,–,–
"CC#C[C@]1(O)CC[C@H]2[C@@H]3CCC4=CC(=O)[C@H](C)CC4=C3[C@@H](c3ccc(N(C)C)cc3)C[C@@]21C [Example 5, 2α-methyl-11β-(4-dimethylaminophenyl)-17α-(prop-1-ynyl)-Δ^4,9-estradiene-17β-ol-3-one]",–,–,–,–,slightly moderate affinity,–,–
"CC#C[C@]1(O)CC[C@H]2[C@@H]3CCC4=CC(=O)C(C#N)(C#N)CC4=C3[C@@H](c3ccc(N(C)C)cc3)C[C@@]21C [Example 9, 2,2-dicyano-11β-(4-dimethylaminophenyl)-17α-(prop-1-ynyl)-Δ^4,9-estradiene-17β-ol-3-one]","< 0,1","< 0,1","< 0,1","< 0,1",–,–,–
"CC#C[C@]1(O)CC[C@H]2[C@@H]3CCC4=C(CCC(=O)C4)[C@H]3[C@@H](c3ccc(N(C)C)cc3)C[C@@]21C [Example 10, 11β-(4-dimethylaminophenyl)-17α-(prop-1-ynyl)-Δ^5(10) -estrene-17β-ol-3-one]","1,5","< 0,1",–,–,–,–,–
"C#C[C@@]1(O)CC[C@H]2[C@@H]3CCC4=CC(=O)CCC4=C3[C@@H](c3ccc(N(C)C)cc3)C[C@@]21C [Example 21, 11β-[4-(N,N-dimethylamino)-phenyl]-17β-ethynyl-Δ^4,9-estradiene-17α-ol-3-one]",–,–,–,–,–,"0,8","7,3"
"C=C(C)C#C[C@]1(O)CC[C@H]2[C@@H]3CCC4=CC(=O)CCC4=C3[C@@H](c3ccc(N(C)C)cc3)C[C@@]21C [Example 23, 11β-[4-(N,N-dimethylamino)-phenyl]-23-methyl-19,21-dinor-17α-Δ^4,9,23-cholatriene-20-yn-17β-ol-3-one]",–,–,–,–,–,0,"14,7"
"CN(C)c1ccc([C@H]2C[C@@]3(C)[C@@H](CC[C@@]3(O)C#CCl)[C@@H]3CCC4=CC(=O)CCC4=C32)cc1 [Example 25, 11β-[4-(N,N-dimethylamino)-phenyl]-21-chloro-19-nor-17α-Δ^4,9-pregnadiene-20-yne-17β-ol-3-one]",–,–,–,–,slightly moderate affinity,0,32
"C[C@]12C[C@H](c3ccc([N+](C)(C)[O-])cc3)C3=C4CCC(=O)C=C4CC[C@H]3[C@@H]1CC[C@@]2(O)C#CCl [Example 26, N-oxide of 11β-[4-(N,N-dimethylamino)-phenyl]-21-chloro-19-nor-17α-Δ^4,9-pregnadiene-20-yne-17β-ol-3-one]",–,–,–,–,–,0,"9,8"
"CN(C)c1ccc([C@H]2C[C@@]3(C)[C@@H](CC[C@@]3(O)C#Cc3ccccc3)[C@@H]3CCC4=CC(=O)CCC4=C32)cc1 [Example 29, 11β-[4-(N,N-dimethylamino)-phenyl]-21-phenyl-19-nor-17α-Δ^4,9-pregnadiene-20-yne-17β-ol-3-one]",–,–,–,–,–,–,0
"CC#C[C@]1(O)CC[C@H]2[C@@H]3CCC4=CC(=O)CCC4=C3[C@@H](c3ccc([N+](C)(C)[O-])cc3)C[C@@]21C [Example 35, N-oxide of 11β-[4-(N,N-dimethylamino)-phenyl]-17α-(prop-1-ynyl)-Δ^4,9-estradiene-17β-ol-3-one]",–,–,–,–,–,–,"2,2"
